Laboratory results: patent US20130158112A1, “COMPOSITIONS AND METHODS FOR INHIBITING BETA AMYLOID SECRETION” (priority 2011, published 2013)
Several values for one entry are separate records, joined by “and”; a condition that tells them apart may be missing. Equal entries are not always repeated. Entries after “also recorded” stand apart in the source; their conditions may differ. Where two headings read alike, the source gives them in different places.

What was measured:
[1] = tested on: THLE-3 human hepatoma cells; assay: Drug activity persistence after incubation with THLE-3 hepatoma cells; assay type: in vitro ADME; conditions: Homo sapiens, THLE3, 24 h
Description: (§1) H4βAPP695 wt cells, a human […] cell line stably transfected with a wtβAPP695 expression vector construct under the control of a CMV promoter (kindly provided by Dr. Chris Eckman from Mayo Clinic, Florida) were cultured as previously described. Twenty-four hours before drug treatment, the media was replaced with serum-free media. Cells were then incubated with drugs (dissolved in DMSO) or vehicle for 24 h for collection of conditioned media and cell lysates. For the PKC inhibitors experiment, three inhibitors were treated 30 min prior to drug challenge. Primary cortical neurons were prepared from embryonic day 18 APP and presenilin 1 (APPswe, PSEN1dE9) transgenic mice on the C57BL/6 genetic background (Jackson Laboratories, strain no. 5864) as previously described. THLE-3 human hepatoma cells (from ATCC) were plated in 24-well plates that were precoated with 10 μg/mL bovine serum albumin, 10 μg/mL fibronectin, and 30 μg/mL bovine type I collagen. The cells were grown in BEGM media (Clonetics) until confluent and treated with drugs at 20 μM for 24 h. This conditioned media was harvested, diluted 1:1 in serum-free medium, and incubated with H4βAPP695 wt cells for 24 h prior to analysis of secreted Aβ, which was compared to the effect of 10 μM drug treatments without prior incubation with the THLE-3 cells. Caco-2 cells (ATCC) were plated in 12-well plates with Transwell inserts (Costar) at 70000 cells per well and grown for 21 days. The media volume of the apical and basal chambers was 0.5 and 1.5 mL, respectively. Transepithelial resistance was measured in each well and found to be >160 Ω/cm^2. Drugs at 40 μM and 20 μg/mL of lucifer yellow were added in serum-free medium to the apical chamber. Four hours later, the basal chamber media was harvested and used to measure lucifer yellow fluorescence to confirm monolayer integrity as well as for treatment of H4βAPP695 wt cells for 24 h prior to analysis of secreted Aβ, which was compared to the effect of direct addition of 10 μM of the corresponding drug.
To screen for resistance to metabolism, 1 and eight noncytotoxic analogues with >50% Aβ reducing activity (compounds 27, 29, 48, 52, 53, 65, 73, and 76) were incubated at 20 μM for 24 h with or without THLE-3 human hepatoma cells.

[2] = tested on: ADAM9; assay: Western blot of pro and active ADAM9 in H4βAPP695 wt cells; assay type: cell-based, human; conditions: 24 h
Description: (§2) Several members of the ADAM (a disintegrin and metalloproteinase) family, ADAM9, ADAM10, and ADAM17, have been reported to have α-secretase activity. […] Using antibodies specific for these three ADAM proteases, we assessed the levels of the pro and active forms in cells cultured with increasing concentrations of compound 1. […] At the 10 μM dose of compound 1, we observed a 31% increase in the ratio of active/pro ADAM9 (p<0.05), N=3 each control and compound 1) and a 42% increase in the ratio active/pro ADAM10 (p<0.05). Although the direct target for compound 1 has not been identified, it seems likely that its mechanism is via the increased ADAM 9 and ADAM10 processing into active α-secretase, which cleaves APP in a manner that precludes Aβ production.

[3] = tested on: Aβ secretion; assay: Secreted total Aβ ELISA in conditioned media of H4βAPP695 wt cells; assay type: cell-based, human; conditions: H4βAPP695 wt cells
How it was run: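 H4 […] cells stably expressing wild-type βAPP695 (CMV promoter), serum-starved 24 h, then exposed to drug in DMSO or vehicle for 24 h before Aβ in conditioned media was measured. Primary cortical neurons came from E18 APPswe/PSEN1dE9 mice on C57BL/6 background.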

[4] = tested on: Aβ secretion; assay: Secreted Aβ in cultured primary neurons from APP/PS1 transgenic mice; assay type: cell-based, mouse; conditions: 24 h incubation
Description: as §1, with “The cells were grown in BEGM media (Clonetics) until confluent and treated with drugs at 20 μM for 24 h. This conditioned media was harvested, diluted 1:1 in serum-free medium, and incubated with H4βAPP695 wt cells for 24 h prior to analysis of secreted Aβ, which was compared to the effect of 10 μM drug treatments without prior incubation with the THLE-3 cells. Caco-2 cells (ATCC) were plated in 12-well plates with Transwell inserts (Costar) at 70000 cells per well and grown for 21 days. The media volume of the apical and basal chambers was 0.5 and 1.5 mL, respectively.” left out, “Drugs at 40 μM and 20 μg/mL of lucifer yellow were added in serum-free medium to the apical chamber.” left out

[5] = tested on: Aβ secretion; assay: PKC inhibitors experiment on Aβ secretion; assay type: cell-based, human
Description: as §1
The tumor promoter phorbal myristate acetate is an activator of protein kinase C (PKC) that has been reported to activate α-secretase activity. Thus, we wanted to determine if protein kinase C inhibitors could block the effect of compound 1 on Aβ secretion.

[6] = tested on: ADAM10; assay: Western blot of pro and active ADAM10 in H4βAPP695 wt cells; assay type: cell-based, human; conditions: 24 h
Description: as §2

[7] = tested on: APP; assay: Western blot of APP processing products (sAPPα, sAPPβ, holoAPP, αCTF) in H4βAPP695 wt cells; assay type: cell-based, human
[8] = tested on: ADAM17; assay: Western blot of pro and active ADAM17 in H4βAPP695 wt cells; assay type: cell-based, human; conditions: increasing concentrations, 24 h
Description: as §2

[9] = tested on: α-secretase; assay: α-Secretase activity assay in lysates of treated H4βAPP695 wt cells; assay type: cell-based, human
Description: H4βAPP695 wt were treated with vehicle or 1 for 24 h, washed with ice cold PBS, and lysed in extraction buffer provided with the α-secretase assay kit (R&D Systems) for 10 min on ice and centrifuged at 10000 g for 1 min to remove nuclei. Protein content of the supernatant was determined by the BCA assay, and 50 μg of lysate protein were added to wells of a 96-well assay plate and the volume was adjusted to 100 μL using the lysis buffer. 100 μL of reaction buffer and 10 μL of the fluorogenic substrate were added, and the plates were incubated at 37° C. in the dark with gentle agitation for 2 h. Activity was detected in a fluorescence plate reader using an excitation of 355 nm and an emission of 510 nm after subtraction of fluorescence in the absence of cell lysate.
We measured the activity of α-secretase using a fluorogenic peptide substrate in lysates of H4βAPP695 wt cells. […] However, addition of compound 1 directly to the cell lysates, rather than to the live cells, had no effect on α-secretase activity (data not shown), implying an indirect cellular activation of this pathway rather than direct activation of the α-secretase protease by compound 1.

[10] = tested on: H4βAPP695 wt cells; assay: Cytotoxicity by total cell protein content (BCA) of H4βAPP695 wt cells; conditions: 10 μM
Description: Cells were washed with cold phosphate buffered saline (PBS) and lysed on ice by vigorous mixing over 15 min with RIPA buffer containing 50 mM Tris-HCl (pH 8.0), 150 mM sodium chloride, 1% NP-40, 0.5% sodium deoxycholate, and 0.1% SDS, supplemented with 10% protease inhibitor cocktail and 2 mM PMSF. After centrifugation at 14000 g for 30 min to remove nuclei and other debris at 4° C., the protein content of the supernatants was measured using the BCA assay kit (Pierce).
The initial screen was performed in 96-well plates with drugs distributed by the hanging drop method yielding estimated drug levels of 10-25 μM. Total Aβ levels in the 24 h conditioned media were measured by a sandwich ELISA assay, and cytotoxicity was assessed by methylene blue staining of the cells in the wells, as previously described.

[11] = tested on: Caco-2 cells; assay: Epithelial transcellular transport of drug activity through Caco-2 monolayers; assay type: in vitro ADME
Description: as §1
Monolayer integrity was confirmed by high levels of transcellular electrical resistance (>160 ohms/cm^2) and by transcellular impermeability to the fluorescent dye lucifer yellow. […] The concentration of each compound added to the upper chamber would lead to 10 μM in the lower chamber if equilibration was complete, and thus the activity of the lower chamber media was compared to the activity of 10 μM drug added directly to the H4βAPP695 wt cells. […] Compound 1 crossed the monolayer and the bottom chamber media led to a 27% reduction in Aβ production, yielding 38% of the theoretical activity. The compound with the most activity in the lower chamber was compound 48, which decreased Aβ production by 50%, with 71% of its theoretical activity. […] On the basis of the combined activity data from these last two studies, compound 48 was selected as the lead drug for in vivo study.

## O=C(NCCSCc1cccc(Cl)c1)c1c(Cl)cccc1Cl [Compound 1]
[1]; 10 μM on H4 cells, without preincubation with hepatoma cells, read-out: hepatoma incubation No total Aβ (% decrease)
  inhibition at 10 µM: 69.4%
[1]; 20 μM preincubated 24 h with THLE-3 hepatoma cells, diluted to 10 μM on H4 cells, read-out: hepatoma incubation Yes total Aβ (% decrease)
  inhibition at 10 µM: 34.6%
[2]; 10 μM
  increase in the ratio of active/pro ADAM9: 31%
[2]; increasing doses
  active ADAM9 / processing of ADAM9: dose dependent increase; also recorded: promotes cellular processing
[3]; 1 μM
  Aβ lowering activity: displayed Aβ lowering activity at 1 μM
[3]; 10 μM, relative to vehicle treated control cells
  % β Decrease: 75.3%
[3]; Homo sapiens, 24 h, 10 μM, relative to vehicle treated control cells, read-out: % β Decrease
  inhibition at 10 µM: 75.3 ± 11.6%
[4]
  secreted Aβ levels in primary neurons: effective in reducing secreted Aβ levels
[5]
  effect on Aβ secretion in presence of PKC inhibitors: not blocked by PKC inhibitors
[6]; 10 μM
  increase in the ratio active/pro ADAM10: 42%
[6]; increasing doses
  active ADAM10 / processing of ADAM10: dose dependent increase; also recorded: promotes cellular processing
[7]; 10 μM
  time at which α-CTF increase is first observed: 2 h
  time to maximal α-CTF levels: ≤ 8 h
[7]; 4 h treatment
  increase in cellular α-CTF in presence of cyclohexamide: not blocked
[8]
  active form of ADAM17: did not observe much effect
[9]
  α-secretase activity after treatment of cells: induced
[9]; cells pretreated with 10 μM for 24 h
  increase in α-secretase activity: 20%
[10]
  cytotoxicity, measured by total cell protein content: did not have significant cytotoxicity
[11]; % of activity passing through Caco-2 monolayer
  % theoretical activity: 38% and 38.4%
[11]; Homo sapiens, Caco-2, 10 μM drug alone added directly to H4βAPP695 wt cells, read-out: transcellular transport No total Aβ (% decrease)
  inhibition at 10 µM: 69.4%
[11]; Homo sapiens, Caco-2, 4 h, lower chamber media after 4 h on Caco-2 monolayer, 10 μM if in equilibrium, read-out: transcellular transport Yes total Aβ (% decrease)
  inhibition at up to 10 µM: 27%
